According to patent US11827628B2, “Compositions and methods for inhibition of the JAK pathway” (Rigel Pharmaceuticals, Inc., priority 2005, dated 2023):
Like-named read-outs stand apart in the source and are kept apart here.

System: up-regulation of ICAM-1 (CD54) by IFNγ in A549 lung epithelial cells
Assay: A549 Epithelial Line Stimulated with IFNγ (ICAM-1 surface expression, FACS)
Type: cell-based, human
Conditions: ICAM-1 expression by FACS, read-out: IC50, Example 43
Method in brief: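 A549 cells pre-incubated 1 h with compound (30 μM to 14 nM, 5% FBS, 0.3% DMSO), then stimulated with IFNγ (75 ng/mL) for 24 h. Surface ICAM-1 stained with APC anti-CD54 and read by flow cytometry; geometric mean of live-gated events plotted against concentration for EC50.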

[1] = A549 epithelial line stimulated with IFNγ

| Compound | IC50 [1] | IC50 (A549 cells stimulated with IFNγ) |
| --- | --- | --- |
| COc1cc(Nc2ncc(F)c(Nc3ccc(OC(C)C#N)c(C)c3)n2)ccc1S(N)(=O)=O (racemic) [Compound I-64, Racemic N2-(4-Aminosulfonyl-3-methoxy)phenyl-N4-[4-(1-cyano)ethoxy-3-methyl]phenyl-5-fluoro-2,4-pyrimidinediamine] | 5.17 µM | – |
| Cc1cc(Nc2nc(Nc3cccc(S(N)(=O)=O)c3)ncc2F)cc(C)c1OCC(N)=O [Compound I-93, N4-(4-Aminocarbonylmethoxy-3,5-dimethyl)phenyl-N2-(3-aminosulfonyl)phenyl-5-fluoro-2,4-pyrimidinediamine] | 23.8 µM | – |
| Cc1cc(Nc2nc(Nc3cccc(S(N)(=O)=O)c3)ncc2F)cc(C)c1OC(C)C#N (racemic) [Compound I-71, Racemic N2-(3-Aminosulfonyl)phenyl-N4-[4-(1-cyano)ethoxy-3,5-dimethyl]phenyl-5-fluoro-2,4-pyrimidinediamine] | 3.27 µM | – |
| Cc1ccc(Nc2ncc(F)c(Nc3ccc4c(c3)CCN4S(C)(=O)=O)n2)cc1S(N)(=O)=O [VII-61, N2-(3-Aminosulfonyl-4-methylphenyl)-5-fluoro-N4-[4-(1-methylsulfonyl)indolin-5-yl]-2,4-pyrimidinediamine] | – | 2.69 µM |
| N#CCOc1cccc(Nc2nc(Nc3cccc(S(N)(=O)=O)c3)ncc2F)c1 [Compound I-4, N2-(3-Aminosulfonyl)phenyl-N4-(3-cyanomethoxy)phenyl-5-fluoro-2,4-pyrimidinediamine] | 4.86 µM | – |
| CCC(=O)NS(=O)(=O)c1cccc(Nc2ncc(F)c(Nc3ccc(OCc4nc(C)no4)cc3)n2)c1 [Compound I-273] | 12.9 µM | – |
| Cc1cc(Nc2nc(Nc3ccc(F)c(S(N)(=O)=O)c3)ncc2F)cc(C)c1OCC#N [Compound I-35, N2-(3-Aminosulfonyl-4-fluoro)phenyl-N4-(4-cyanomethoxy-3,5-dimethyl)phenyl-5-fluoro-2,4-pyrimidinediamine] | 8.58 µM | – |
| NS(=O)(=O)c1cccc(Nc2ncc(F)c(Nc3ccc(Cn4ccnc4)cc3)n2)c1 [III-81, N2-(3-Aminosulfonylphenyl)-5-fluoro-N4-[4-(1-imidazolylmethyl)phenyl]-2,4-pyrimidinediamine] | 48.3 µM | – |
| Cc1cc(Nc2nc(Nc3ccc(S(N)(=O)=O)cc3)ncc2F)cc(C)c1OC(C)C#N (racemic) [Compound I-63, Racemic N2-(4-Aminosulfonyl)phenyl-N4-[4-(1-cyano)ethoxy-3,5-dimethyl]phenyl-5-fluoro-2,4-pyrimidinediamine] | 34.3 µM | – |
| CNS(=O)(=O)c1cc(Nc2ncc(F)c(Nc3ccc(Cc4ccncc4)cc3)n2)ccc1C [III-75, 5-Fluoro-N2-[3-(N-methylaminosulfony)-4-methylphenyl]-5-fluoro-N4-[4-(4-pyridinylmethyl)phenyl]-2,4-pyrimidinediamine] | 10.1 µM | – |

Second part, the molecule after the results:

| IC50 [1] | IC50 (A549 cells stimulated with IFNγ) | Compound |
| --- | --- | --- |
| 3.31 µM | – | Cc1ccc(Nc2ncc(F)c(Nc3cc(C)c(OC(C)C#N)c(C)c3)n2)cc1S(N)(=O)=O (racemic) [Compound I-72, Racemic N2-(3-Aminosulfonyl-4-methyl)phenyl-N4-[4-(1-cyano)ethoxy-3,5-dimethyl]phenyl-5-fluoro-2,4-pyrimidinediamine] |
| 5.64 µM | – | Cc1cc(Nc2nc(Nc3ccc(F)c(S(N)(=O)=O)c3)ncc2F)ccc1OC(C)C#N (racemic) [Compound I-69, Racemic N2-(3-Aminosulfonyl-4-fluoro)phenyl-N4-[4-(1-cyano)ethoxy-3-methyl]phenyl-5-fluoro-2,4-pyrimidinediamine] |
| 4.62 µM | – | Cc1ccc(Nc2ncc(F)c(Nc3ccc(OC(C)C#N)cc3)n2)cc1S(N)(=O)=O (racemic) [Compound I-67, Racemic N2-(3-Aminosulfonyl-4-methyl)phenyl-N4-[4-(1-cyano)ethoxy]phenyl-5-fluoro-2,4-pyrimidinediamine] |
| 14.9 µM | – | Cc1ccc(Nc2ncc(F)c(Nc3ccc(NC(=O)CC#N)c(Cl)c3)n2)cc1S(N)(=O)=O [Compound I-83, N2-(3-Aminosulfonyl-4-methylphenyl)-N4-[3-chloro-4-(N-cyanoacetyl)aminophneyl]-5-fluoro-2,4-pyrimidinediamine] |
| 7.89 µM | – | Cc1cc(Nc2nc(Nc3ccc(S(N)(=O)=O)cc3)ncc2F)ccc1OC(C)C#N (racemic) [Compound I-60, Racemic N2-(4-Aminosulfonyl)phenyl-N4-[4-(1-cyano)ethoxy-3-methyl]phenyl-5-fluoro-2,4-pyrimidinediamine] |
| 5.14 µM | – | CC(C)(C#N)Oc1ccc(Nc2nc(Nc3cccc(S(N)(=O)=O)c3)ncc2F)cc1 [Compound I-76, N2-(3-Aminosulfonyl)phenyl-N4-[4-(1-cyano-1-methyl)ethoxy]phenyl-5-fluoro-2,4-pyrimidinediamine] |
| 3.53 µM | – | Cc1cc(Nc2nc(Nc3ccc(C)c(S(N)(=O)=O)c3)ncc2F)ccc1OC(C)C#N (racemic) [Compound I-62, Racemic N2-(3-Aminosulfonyl-4-methyl)phenyl-N4-[4-(1-cyano)ethoxy-3-methyl]phenyl-5-fluoro-2,4-pyrimidinediamine] |
| 5.56 µM | – | Cc1ccc(Nc2ncc(F)c(Nc3ccc(OC(C)(C)C#N)cc3)n2)cc1S(N)(=O)=O [Compound I-73, N2-(3-Aminosulfonyl-4-methyl)phenyl-N4-[4-(1-cyano-1-methyl)ethoxy]phenyl-5-fluoro-2,4-pyrimidinediamine] |
| 3.43 µM | – | COc1cc(Nc2ncc(F)c(Nc3ccc(OC(C)C#N)cc3)n2)ccc1S(N)(=O)=O (racemic) [Compound I-70, Racemic N2-(4-Aminosulfonyl-3-methoxy)phenyl-N4-[4-(1-cyano)ethoxy]phenyl-5-fluoro-2,4-pyrimidinediamine] |
| 4.96 µM | – | CC(C#N)Oc1ccc(Nc2nc(Nc3ccc(F)c(S(N)(=O)=O)c3)ncc2F)cc1 (racemic) [Compound I-68, Racemic N2-(3-Aminosulfonyl-4-fluoro)phenyl-N4-[4-(1-cyano)ethoxy]phenyl-5-fluoro-2,4-pyrimidinediamine] |
| 36.7 µM | – | Cc1ccc(Nc2ncc(F)c(Nc3ccc(OCC#N)c(Cl)c3)n2)cc1S(N)(=O)=O [Compound I-43, N2-(3-Aminosulfonyl-4-methylphenyl)-N4-(3-chloro-4-cyanomethoxypheny)-5-fluoro-2,4-pyrimidinediamine] |
| 10.8 µM | – | CC(C)(C#N)Oc1ccc(Nc2nc(Nc3ccc(F)c(S(N)(=O)=O)c3)ncc2F)cc1 [Compound I-74, N2-(3-Aminosulfonyl-4-fluoro)phenyl-N4-[4-(1-cyano-1-methyl)ethoxy]phenyl-5-fluoro-2,4-pyrimidinediamine] |
| 24.2 µM | – | Cc1ccc(Nc2ncc(F)c(Nc3ccc(Cn4ccnc4)cc3)n2)cc1S(N)(=O)=O [III-82, N2-(3-Aminosulfonyl-4-methylphenyl)-5-fluoro-N4-[4-(1-imidazolylmethyl)phenyl]-2,4-pyrimidinediamine] |
